Test results reported in US8703158B2, “Theobromine for the treatment of cough” (Biocopea Limited, priority 2009, dated 2014).

Columns and labels:
[1] = observations of behaviour and health of dosed animals; details: codeine 25 mg/kg i.p.; reduction in movement in exposure chamber
Procedure: Guinea pigs were dosed intra-tracheally with theobromine or vehicle, orally with theobromine and intra-peronteneally with codeine. All pre-treatments were administered at t−30 min prior to citric acid exposure.

[2] = tested on: citric acid-induced cough responses; experiment: citric acid-induced cough in guinea pigs (antitussive activity); format: in vivo, guinea pig; details: for mean number of citric acid-induced coughs / onset time to the first cough: 0.5 h pretreatment; for mean number of citric acid-induced coughs: vehicle 26±4
Procedure: The aim of this Example is to provide an assessment of the antitussive activity of intra-tracheally (i.t.) or orally dosed (p.o.) administered theobromine (3-30 mg/kg) compared to the positive control codeine (25 mg/kg, i.p.) against irritant-induced cough responses.
Thirty-six guinea pigs were randomly allocated to one of the six treatment groups (see Table 1) according to the blinding code.

Compound	behaviour of the animals (sedation) [1]	mean number of citric acid-induced coughs ([2]; codeine 25 mg/kg i.p., citric acid 1 M, 10 min exposure + 5 min recovery)	onset time to the first cough ([2]; codeine 25 mg/kg i.p., vehicle 71±26 s)	inhaled dose giving equivalent anti-tussive effect, as fraction of the oral dose ([2]; citric acid-induced cough model, inhaled (i.t.) versus oral)	mean number of citric acid-induced coughs ([2]; theobromine 10 mg/kg i.t.)	onset time to the first cough ([2]; theobromine 30 mg/kg p.o., versus vehicle control (71±26 s))	effect on the total number of coughs ([2]; theobromine 3-30 mg/kg i.t., local administration)
COc1ccc2c3c1O[C@H]1[C@@H](O)C=C[C@H]4[C@@H](C2)N(C)CC[C@@]341 [codeine]	slight sedation	5±1 coughs	337 ± 51 s				
Cn1cnc2c1c(=O)[nH]c(=O)n2C [theobromine]				⅓	10.33±2 coughs	not significantly increased	significant dose-dependant effect
